Reference: the NIST ThermoML archive (doi:10.1021/je201334p)

Assay: xn = mol fraction of the nth substance listed
Conditions: 101 kPa, Liquid; for mass density: Vibrating tube method; for speed of sound: Sing-around technique in a fixed-path interferometer

CCCC[N+]1(C)CCCC1.N#CN=C=[N-] [1-butyl-1-methylpyrrolidinium dicyanamide] + O
Conditions | mass density, 288.15 K [kg/m3] | mass density, 298.15 K [kg/m3] | mass density, 308.15 K [kg/m3] | speed of sound, 298.15 K [m/s] | speed of sound, 308.15 K [m/s]
x2 = 0 | – | 1013.53 | 1007.93 | 1811.1 | 1781.9
x2 = 0.096 | – | 1013.25 | 1007.63 | 1810.6 | 1782.4
x2 = 0.1277 | – | 1013.16 | 1007.52 | 1810.4 | 1783.1
x2 = 0.2116 | – | 1012.89 | 1007.23 | 1810.1 | 1783.8
x2 = 0.3077 | – | 1012.56 | 1006.85 | 1810 | 1784.2
x2 = 0.3942 | – | 1012.27 | 1006.5 | 1810 | 1785.7
x2 = 0.4952 | – | 1011.89 | 1006.03 | 1810.8 | 1786.7
x2 = 0.5023 | – | 1011.86 | 1005.99 | 1810.9 | 1786.7
x2 = 0.6047 | – | 1011.42 | 1005.42 | 1811.8 | 1788
x2 = 0.6137 | – | 1011.37 | 1005.35 | 1811.8 | 1788
x2 = 0.7061 | 1016.91 | 1010.72 | 1004.54 | 1809.6 | 1786.1
x2 = 0.7177 | 1016.81 | 1010.61 | 1004.4 | 1808.9 | 1785.6
x2 = 0.7571 | 1016.39 | 1010.13 | 1003.86 | 1804.9 | 1782.1
x2 = 0.8208 | 1015.22 | 1008.91 | 1002.57 | 1790.5 | 1769.4
x2 = 0.8468 | 1014.46 | 1008.19 | 1001.84 | 1779.7 | 1756.5
x2 = 0.9034 | 1011.96 | 1005.98 | 999.84 | 1738.3 | 1724.2
x2 = 0.904 | 1011.92 | 1005.93 | 999.81 | 1737.2 | 1723.6
x2 = 0.9492 | 1008.27 | 1003.12 | 997.62 | 1670.7 | 1666.7
x2 = 0.9507 | 1008.1 | 1002.99 | 997.53 | 1667.7 | 1664.3
x2 = 0.9517 | 1007.98 | 1002.91 | 997.47 | 1665.5 | 1662.5
